Target: T1, mouse AhR (mAhr) (Mus musculus, UniProt P30561)
T1 construct: cytosolic protein from Hepa1c1c7 cells
T1 sequence (P30561 10-848): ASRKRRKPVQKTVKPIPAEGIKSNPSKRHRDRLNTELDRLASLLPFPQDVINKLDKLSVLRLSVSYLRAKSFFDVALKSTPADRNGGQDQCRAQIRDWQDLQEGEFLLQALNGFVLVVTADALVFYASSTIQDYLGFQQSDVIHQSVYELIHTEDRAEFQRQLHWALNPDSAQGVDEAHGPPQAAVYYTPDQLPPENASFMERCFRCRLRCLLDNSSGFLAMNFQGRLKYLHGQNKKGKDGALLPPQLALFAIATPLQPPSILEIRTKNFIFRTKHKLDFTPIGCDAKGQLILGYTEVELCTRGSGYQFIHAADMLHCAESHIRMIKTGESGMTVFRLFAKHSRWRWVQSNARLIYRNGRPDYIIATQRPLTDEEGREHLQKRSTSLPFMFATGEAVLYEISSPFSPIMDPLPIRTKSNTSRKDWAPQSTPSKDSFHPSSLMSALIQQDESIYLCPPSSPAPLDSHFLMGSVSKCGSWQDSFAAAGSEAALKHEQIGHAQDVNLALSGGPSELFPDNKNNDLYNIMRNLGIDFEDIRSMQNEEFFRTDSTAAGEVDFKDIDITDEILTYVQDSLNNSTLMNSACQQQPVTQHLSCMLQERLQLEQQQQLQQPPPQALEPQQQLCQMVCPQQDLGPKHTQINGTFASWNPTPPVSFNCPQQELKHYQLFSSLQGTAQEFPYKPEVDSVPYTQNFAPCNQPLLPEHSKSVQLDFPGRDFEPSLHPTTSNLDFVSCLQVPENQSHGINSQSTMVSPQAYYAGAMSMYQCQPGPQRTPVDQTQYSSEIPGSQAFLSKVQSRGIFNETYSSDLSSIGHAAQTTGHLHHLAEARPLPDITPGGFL
Assay: [3H]-TCDD competitive radioligand binding; partial displacement (about […]) at […]

- IC50: > 609 µM
Compound: CC/C=C\CC1=C(C)CCC1=O [jasmone, 3-methyl-2-[(2Z)-pent-2-en-1-yl]cyclopent-2-en-1-one]

From article PMC10648586, “Jasmone Is a Ligand-Selective Allosteric Antagonist of Aryl Hydrocarbon Receptor (AhR)” (International Journal of Molecular Sciences, 2023)
